Test results from patent publication US12624018B1, “Inhibitors of RIPK2 and medical uses thereof” (Odyssey Therapeutics, Inc., priority 2022, dated 2026).

Legend:
[1] = test system: RIPK2 activity in vivo, as measured by plasma levels of cytokine MCP-1; experiment: In vivo inhibition of monocyte chemoattractant protein-1 (MCP-1), acute mouse MDP challenge; conditions: female C57BL/6 mice, plasma 2 h after MDP
Experimental: The compounds of the disclosure were tested for their ability to inhibit RTPK2 activity in vivo, as measured by plasma levels of cytokine MCP-1. C57BL/6 mice were dosed orally with the compounds of the disclosure one hour prior to intra-peritoneal administration of muramyldipeptide (MDP), a NOD2 agonist. Intraperitoneal (i.p.) injection of MDP in mice induces an increase in circulating levels of proinflammatory cytokines, such as MCP-1, in a RIPK2-dependent manner. This acute mouse MDP challenge represents a screening model to measure the ability of compounds to inhibit RIPK2 in vivo.
Materials: Female C57BL/6 mice (6-13 weeks of age) were purchased from the Jackson Laboratory. All mice were maintained under a 12 h light/dark cycle and had food and water ad libitum. Muramyldipeptide (MDP) was purchased from Invivogen (catalog No. tlrl-mdp; lot No. 6231-43-02). Mouse MCP-1 was measured using U-PLEX MSD kit (Meso Scale Discovery (MSD), catalog No. K15069M-2). Carboxymethyl cellulose was purchased from Sigma-Aldrich (catalog No. C5678-500 ml), Tween80 was purchased from Sigma-Aldrich (catalog No. P1754-500 ml), (Hydroxypropyl)-β-cyclodextrin (HP-β-CD) was purchased from Sigma-Aldrich (catalog No. C332607-500G), PBS was purchased from Thermo Fisher Scientific (catalog No. 14190250).
The vehicle was prepared by mixing carboxymethyl cellulose and Tween80 to achieve a final solution of 0.5% CMC or 20% HP-β-CD in water. The compounds of the disclosure were weighed out and mixed with the vehicle to yield final working suspensions. Working suspensions of the compounds were prepared once at the beginning of the study, and vortexed and sonicated prior to each dosing to ensure the material was in fine suspension.
Mice were acclimated to the facility for at least 5 days before the start of the study. On day 0, mice were weighed and assigned to groups in a balanced manner to achieve similar average weight across the groups at the start of the study. On day 0, hour −1 (1 hours before MDP injection), all mice were given a single p.o. dose with vehicle or a compound of the disclosure. At hour 0 (1 hour after dosing), mice were injected intraperitoneally (IP) with 8 mpk MDP in PBS. Two hours after MDP injection (3 hours after drug treatment), blood was collected via cardiac puncture for all mice into EDTA microtainer collection tubes. Plasma was prepared from blood and stored at −80° C.
MCP-1 levels in mouse plasma were measured using U-PLEX MSD kit according to manufacturer's instructions. A single analysis was performed for each sample. Concentrations were determined relative to a standard calibration curve, and total analyte levels in pg/mL.
The MCP-1 data in pg/mL were normalized in GraphPad Prism 9.2 using the normalize function and entering the 0% and 100% inhibition control groups for the study. 0% inhibition was defined as mean MCP-1 pg/mL in MDP vehicle group, and 100% inhibition was defined as mean MCP-1 pg/mL in the unstimulated vehicle group.

RIPK2 enzyme = target: T1, RIPK2 enzyme (Homo sapiens, UniProt O43353); experiment: RIPK2 inhibition (ADP-Glo Kinase Assay); assay type: biochemical; conditions: RIPK2 5 nM, ATP 150 μM, MBP substrate, read-out: RIPK2 IC50
T1 construct: purchased Carna 09-128
T1 sequence (O43353 1-299 limits assumed): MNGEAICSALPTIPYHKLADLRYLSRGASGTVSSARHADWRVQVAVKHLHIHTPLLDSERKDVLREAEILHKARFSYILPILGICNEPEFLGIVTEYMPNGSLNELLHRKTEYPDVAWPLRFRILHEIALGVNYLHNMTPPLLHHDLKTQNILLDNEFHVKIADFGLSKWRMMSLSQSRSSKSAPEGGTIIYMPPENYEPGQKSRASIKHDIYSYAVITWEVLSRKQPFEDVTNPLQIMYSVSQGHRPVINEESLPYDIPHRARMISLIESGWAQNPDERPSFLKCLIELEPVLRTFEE
Summary of the method: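 Swine MBP substrate; compound and 5 nM RIPK2 first mixed for 30 min at room temperature; buffer pH 7.5 HEPES 50 mM with 10 mM MgCl2, 2 mM DTT, 1 mM EGTA, Brij-35, BSA.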

[2] = test system: TNF-alpha secretion in human whole blood; experiment: Inhibition of TNF-alpha secretion in human whole blood (IFN-gamma primed, L18-MDP stimulated); assay type: cell-based; conditions: Homo sapiens, 16 h, L18-MDP 100 ng/mL, read-out: Human Whole Blood TNFα IC50
[3] = single p.o. dose 3 mg/kg 1 h before i.p. MDP 8 mpk
[4] = single p.o. dose 10 mg/kg 1 h before i.p. MDP 8 mpk

Row | SMILES | IC50 (RIPK2 enzyme) [nM] | IC50 [2] [nM] | % MCP-1 inhibition [1, 3] | % MCP-1 inhibition [1, 4] [%]
1 | CC(C)(C)n1cc(NC(=O)Cc2ccc(Oc3ccnc4ccc(S(C)(=O)=O)cc34)cc2F)cn1 [Compound 38, N-(1-(tert-butyl)-1H-pyrazol-4-yl)-2-(2-fluoro-4-((6-(methylsulfonyl)quinolin-4-yl)oxy)phenyl)acetamide] | < 2.5 | 5 | – | 99
2 | Cc1cc(CC(=O)Nc2cnn(C(C)(C)C)c2)ccc1Oc1ccnc2ccc(OC3CCNCC3)cc12 [Compound 83, N-(1-(tert-butyl)-1H-pyrazol-4-yl)-2-(3-methyl-4-((6-(piperidin-4-yloxy)quinolin-4-yl)oxy)phenyl) acetamide] | < 2.5 | 3 | no effect | –
3 | Cc1c(Oc2ccnc3ccc(S(C)(=O)=O)cc23)ccc(CC(=O)Nc2cnn(C(C)(C)C)c2)c1F [Compound 91, N-(1-(tert-butyl)-1H-pyrazol-4-yl)-2-(2-fluoro-3-methyl-4-((6-(methylsulfonyl)quinolin-4-yl)oxy)phenyl)acetamide] | < 2.5 | 6 | 99% | –
4 | CNC(=O)c1ccc2nccc(Oc3cc(F)c(CC(=O)Nc4cnn(C(C)(C)C)c4)cc3C)c2c1 [Compound 360, 4-(4-(2-((1-(tert-butyl)-1H-pyrazol-4-yl)amino)-2-oxoethyl)-5-fluoro-2-methylphenoxy)-N-methylquinoline-6-carboxamide] | < 2.5 | 7 | – | 93
5 | Cc1cc(CC(=O)Nc2cnn(C(C)(C)C)c2)c(F)cc1Oc1ccnc2ccc(C(N)=O)cc12 [Compound 359, 4-(4-(2-((1-(tert-butyl)-1H-pyrazol-4-yl)amino)-2-oxoethyl)-5-fluoro-2-methyl-phenoxy) quinoline-6-carboxamide] | < 2.5 | 4 | – | 88

Second part, led by results:

Row | IC50 (RIPK2 enzyme) [nM] | IC50 [2] [nM] | SMILES | % MCP-1 inhibition [1, 3] | % MCP-1 inhibition [1, 4] [%]
6 | < 2.5 | – | Cc1cc(CC(=O)Nc2cnn(C(C)(C)C)c2)cc(C)c1Oc1ccnc2cc(F)c(C(N)=O)cc12 [Compound 581, 4-(4-(2-((1-(tert-butyl)-1H-pyrazol-4-yl)amino)-2-oxoethyl)-2,6-dimethylphenoxy)-7-fluoroquinoline-6-carboxamide] | 75% | –
7 | < 2.5 | 8 | CCS(=O)(=O)c1ccc2nccc(Oc3ccc(CC(=O)Nc4cnn(C(C)(C)C)c4)cc3C)c2c1 [Compound 99, N-(1-(tert-butyl)-1H-pyrazol-4-yl)-2-(4-((6-(ethylsulfonyl)quinolin-4-yl)oxy)-3-methylphenyl)acetamide] | 111% | –
8 | < 2.5 | 14 | Cc1cc(CC(=O)Nc2cnn(C(C)(C)C)c2)c(F)cc1Oc1ccnc2ccc(S(C)(=O)=O)cc12 [Compound 113, N-(1-(tert-butyl)-1H-pyrazol-4-yl)-2-(2-fluoro-5-methyl-4-((6-(methylsulfonyl)quinolin-4-yl)oxy)phenyl)acetamide] | – | 82
9 | < 2.5 | 9 | Cc1cc(CC(=O)Nc2cnn(C(C)(C)C)c2)ccc1Oc1ccnc2ccc(S(C)(=O)=O)cc12 [Compound 86, N-(1-(tert-butyl)-1H-pyrazol-4-yl)-2-(3-methyl-4-((6-(methylsulfonyl)quinolin-4-yl)oxy)phenyl)acetamide] | 101% | –
